Measured values reported in EP4293019A1, “4-SUBSTITUTED (1H-BENZO[D]IMIDAZOL-2-YL)-1H-PYRAZOLES AS BUB1 INHIBITORS USEFUL FOR TREATING CANCERS” (Netherlands Translational Research Center Holding B.V., priority 2022, dated 2023).

Legend:
[1] = target: T1, hBUB1 (Homo sapiens, UniProt O43683); test: hBUB1 kinase activity assay (biochemical fluorescence polarization assay, IMAP); details: BUB1/BUB3 3.26 nM, ATP 15 µM, BUB1/BUB3 substrate 75 nM; N=2, n=2; read-out: hBUB1 pIC50 (converted)
T1 construct: purchased Carna Biosciences 05-187
Method: This protocol describes how the Kinase Activity Assay was performed to determine pIC50 values of compounds of general formula (I) against hBUB1.
Assays were performed in 384-well plates (Greiner, black, flat bottom, 781076) by sequential addition (final concentrations are indicated) of inhibitor (5 µL, 0.3 nM - 1 µM or 3 nM - 10 µM), BUB1/BUB3 (5 µL, 3.26 nM, Carna Biosciences (05-187), lot: 15CBS-0644 D), ATP (5 µL, 15 µM) and BUB1/BUB3 substrate (5 µL, 75 nM, Carna Biosciences (05-187MSSU)), all as 4x working solutions. The final concentration of DMSO was 1%. Assay reactions were stopped by addition of IMAP progressive binding reagent (20 µL, 1200x diluted, Molecular Devices (R8155), lot: 3117896). Each assay included the following controls: (i) a background control (treated with vehicle instead of inhibitor and BUB1/BUB3 substrate), (ii) MIN controls (treated with 5 µM BAY1816032 (MedChem Express) as inhibitor, used as 0% BUB1 activity) and (iii) MAX controls (treated with vehicle instead of inhibitor, used as 100% BUB1 activity). All inhibitors were tested in two separate assays and all inhibitor concentrations were tested in duplicate per assay (N=2, n=2).
For each assay, assay buffer (AB) was freshly prepared and consisted of 20 mM HEPES (prepared by diluting 1 M HEPES, pH 7.2), 5 mM MgCl2, 0.01% Tween-20 and 1 mM DTT. Stocks of inhibitors (in DMSO) were diluted in AB to obtain 4x working solutions (4% DMSO) and 5 µL was added to the assay plate. BUB1/BUB3 (3.26 µM (486 µg/mL) in storage buffer) was diluted in AB to obtain 13.0 nM of which 5 µL was added to all wells of the assay plate. The assay plate was centrifuged (1 min, 200 g) and incubated at RT for 30 min. ATP (4 mM in MilliQ) was diluted in AB to obtain 60 µM of which 5 µL was added to each well. BUB1/BUB3 substrate (1 mM) was diluted in 20 mM HEPES (prepared by diluting 1 M HEPES (pH 7.2) in MilliQ) to obtain 80 µM (this solution was freshly prepared every assay) and further diluted in AB to obtain 300 nM after which 5 µL was added to each well of the assay plate except for background control wells. The assay plate was centrifuged (1 min, 200 g) and incubated at RT in the dark for 180 min. IMAP progressive binding buffer A (5x) and IMAP progressive binding buffer B (5x) were mixed in a ratio to obtain 30% buffer A and 70% buffer B, which was subsequently diluted 5x in MilliQ. IMAP progressive binding reagent was diluted 600x in aforementioned mixture of buffer A and B (to obtain a 2x working solution) of which 20 µL was added to each well of the assay plate. The assay plate was centrifuged (1 min, 200 g) and incubated at RT in the dark for 90 min. Fluorescence polarization was measured on a CLARIOstar plate reader using the following settings: (i) optic settings → excitation = F: 482-16, dichroic = F: LP 504, emission = F: 530-40, (ii) optic = top optic, (iii) speed/precision = maximum precision, (iv) focus adjustment was performed for every assay and (v) gain adjustment was done by setting the target mP value to 35 mP for one of the MIN control wells. Data was normalized between MIN and MAX controls and data was plotted using GraphPad Prism 8.0 using "Nonlinear regression (curve fit)" and "log(inhibitor) vs. normalized response - Variable slope" to determine pIC50 values.
Inhibition is indicated as pIC50 ("-" = not measured). Compounds having an activity designated as "A" provided an pIC50 ≥ 7.0 (IC50 ≤100 nM); compounds having an activity designated as "B" provided an 6.3 ≤ pIC50 < 7.0 (100 nM<IC50 ≤ 500 nM); compounds having an activity designated as "C" provided an 6.0 ≤ pIC50 < 6.3 (500 nM < IC50 ≤ 1 µM); compounds having an activity designated as "D" provided an 6.0 < pIC50 ≤ 5.0 (1 µM < IC50 ≤ 10 µM); and compounds having an activity designated as "E" provided an pIC50 < 5.0 (IC50 >10 µM).

[2] = test system: U2OS cells; test: Cellular proliferation assay (SRB proliferation assay); type: cell-based; details: Homo sapiens, 72 h treatment, SRB staining, N=2, n=3
Method: This protocol describes how the Cellular Proliferation Assay was performed to determine pIC50 values of compounds of general formula (I) against U2OS cells.
U2OS (human osteosarcoma) cells were purchased at ATCC and were tested on regular basis for mycoplasma contamination. Cultures were discarded after 2-3 months of use. Cells were cultured at 37°C under 7% CO2 in DMEM (Sigma Aldrich, D6546) supplemented with GlutaMAX (2 mM, ThermoFisher), 10% (v/v) heat-inactivated newborn calf serum (Seradigm), penicillin and streptomycin (200 µg/mL each, Duchefa) (complete medium). Medium was refreshed every 2-3 days and cells were passaged by trypsinization twice a week at 80-90% confluence. Cell viability was assessed by Trypan Blue exclusion and cell quantification using a TC20™ Automated Cell Counter (Bio-Rad).
Assays were performed in 96-well plates (Greiner, Cellstar, 655180) by seeding (day 0), treatment (day 1) and subsequent incubation for 72 h. Cells were fixed, stained and staining was subsequently dissolved after which absorbance was measured. Each assay included the following controls: (i) a background control (to which no cells were added), (ii) t0 controls (separate assay plate in which cells were fixed on day 1, used as 0% proliferation), (iii) nontreated controls (present in each assay plate, treated with vehicle and used as 100% proliferation). Cells were treated with different concentrations of indicated inhibitor. All inhibitors were tested in two separate assays and all inhibitor concentrations were tested in triplicate per assay (N=2, n=3).
For each assay, U2OS cells from 10 cm dishes were seeded into 96-well plates (3,000 cells/well) and subsequently incubated overnight to allow for cell adherence. Stocks of inhibitor and vehicle (all in DMSO) were diluted in complete medium to obtain 2x working solutions (1% DMSO). Cell medium was replaced by fresh complete medium (50 µL), treatment was started by addition of the 2x working solutions (50 µL) and plates were incubated at 37°C for 72 h. Cell medium was replaced by fresh serum free medium (100 µL) and cells were fixed by addition of 30 µL 50% (w/v) aq. trichloroacetic acid after which the plates were incubated at 4°C for 60 min. Wells were emptied by shaking the plates upside down after which wells were washed three times with demineralized water and air-dried overnight. To each well, 60 µL of SRB solution (0.4% (w/v) in 1% aq. acetic acid) was added and plates were incubated for 30 min. The excess SRB was removed and the wells were washed three times with 1% aq. acetic acid and air-dried overnight. Bound SRB was redissolved by addition of 150 µL 10 mM TRIS (free-base) and absorbance was measured at 540 nm on a CLARIOstar plate reader. Data was normalized between t0 and nontreated controls and plotted using GraphPad Prism 8.0 using "Nonlinear regression (curve fit)" and "log(inhibitor) vs. normalized response - Variable slope" to determine pIC50 values.
Inhibition is indicated as pIC50 ("-" = not measured). Compounds having an activity designated as "A" provided an pIC50 ≥ 6.0 (IC50 ≤1 µM); compounds having an activity designated as "B" provided an 5.3 ≤ pIC50 < 6.0 (1 µM<IC50 ≤ 5 µM); compounds having an activity designated as "C" provided an 5.0 ≤ pIC50 < 5.3 (5 µM < IC50 ≤ 10 µM); compounds having an activity designated as "D" provided an 5.0 < pIC50 ≤ 4.7 (10 µM < IC50 ≤ 20 µM); and compounds having an activity designated as "E" provided an pIC50 < 4.7 (IC50 >20 µM).

T1 sequence (O43683 whole entry): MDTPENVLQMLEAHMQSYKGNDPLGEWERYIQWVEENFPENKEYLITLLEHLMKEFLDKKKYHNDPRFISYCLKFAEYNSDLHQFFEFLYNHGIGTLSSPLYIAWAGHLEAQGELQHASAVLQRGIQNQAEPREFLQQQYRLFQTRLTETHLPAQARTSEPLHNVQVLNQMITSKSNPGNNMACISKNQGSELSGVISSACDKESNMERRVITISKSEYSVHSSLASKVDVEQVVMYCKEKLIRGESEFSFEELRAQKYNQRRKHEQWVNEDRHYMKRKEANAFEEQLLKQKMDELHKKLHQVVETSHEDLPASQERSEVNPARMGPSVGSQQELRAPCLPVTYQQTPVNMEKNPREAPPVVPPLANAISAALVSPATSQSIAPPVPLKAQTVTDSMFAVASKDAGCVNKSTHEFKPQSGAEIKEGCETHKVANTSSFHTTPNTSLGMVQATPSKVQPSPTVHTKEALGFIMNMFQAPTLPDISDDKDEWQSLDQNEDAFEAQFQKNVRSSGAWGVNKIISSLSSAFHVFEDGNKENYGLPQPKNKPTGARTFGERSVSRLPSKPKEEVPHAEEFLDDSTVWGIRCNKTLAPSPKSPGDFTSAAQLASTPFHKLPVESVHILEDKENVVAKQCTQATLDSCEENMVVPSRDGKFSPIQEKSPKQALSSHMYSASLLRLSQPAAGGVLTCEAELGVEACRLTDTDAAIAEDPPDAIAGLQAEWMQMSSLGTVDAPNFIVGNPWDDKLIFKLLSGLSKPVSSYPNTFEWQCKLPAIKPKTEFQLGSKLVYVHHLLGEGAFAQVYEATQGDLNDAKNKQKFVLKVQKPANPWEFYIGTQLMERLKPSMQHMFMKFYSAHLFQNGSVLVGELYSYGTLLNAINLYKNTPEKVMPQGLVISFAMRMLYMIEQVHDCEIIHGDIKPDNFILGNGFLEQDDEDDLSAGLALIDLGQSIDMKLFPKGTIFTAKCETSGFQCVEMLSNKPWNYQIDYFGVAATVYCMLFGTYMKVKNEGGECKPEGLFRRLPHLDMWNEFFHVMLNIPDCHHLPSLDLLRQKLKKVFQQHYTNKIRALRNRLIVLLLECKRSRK
T1 sequence (O43684 whole entry partner): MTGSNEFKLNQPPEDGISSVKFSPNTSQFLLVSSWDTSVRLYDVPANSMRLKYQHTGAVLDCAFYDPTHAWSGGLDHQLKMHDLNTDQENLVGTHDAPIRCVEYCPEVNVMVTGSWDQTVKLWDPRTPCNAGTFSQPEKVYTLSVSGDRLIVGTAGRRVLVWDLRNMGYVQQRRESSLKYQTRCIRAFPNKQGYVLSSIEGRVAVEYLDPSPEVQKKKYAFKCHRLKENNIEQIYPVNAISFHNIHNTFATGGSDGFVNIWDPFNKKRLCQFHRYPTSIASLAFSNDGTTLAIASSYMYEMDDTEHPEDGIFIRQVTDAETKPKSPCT

Row | SMILES | IC50 [1] | IC50 [2]
1 | COc1cnc(-c2cccc(Cl)c2F)nc1Nc1c[nH]nc1-c1nc2cc(CN3CCOCC3)ccc2[nH]1 [Compound 55, 2-(3-Chloro-2-fluorophenyl)-5-methoxy-N-(3-(5-(morpholinomethyl)-1H-benzo[d]imidazol-2-yl)-1H-pyrazol-4-yl)pyrimidin-4-amine] | ≤ 100 nM | ≤ 1000 nM
2 | COc1cnc(-c2cccc(C(F)(F)F)c2)nc1Nc1c[nH]nc1-c1nc2cc(CN3CCOCC3)ccc2[nH]1 [Compound 53, 5-Methoxy-N-(3-(5-(morpholinomethyl)-1H-benzo[d]imidazol-2-yl)-1H-pyrazol-4-yl)-2-(3-(trifluoromethyl)phenyl)pyrimidin-4-amine] | 100 to 501 nM | ≤ 1000 nM
3 | c1ccc(COc2nccc(Nc3c[nH]nc3-c3nc4cc(CN5CCOCC5)ccc4[nH]3)n2)cc1 [Compound 18, 2-(benzyloxy)-N-(3-(5-(morpholinomethyl)-1H-benzo[d]imidazol-2-yl)-1H-pyrazol-4-yl)pyrimidin-4-amine] | 100 to 501 nM | 1000 to 5010 nM
4 | COc1cnc(-c2ccc(F)cc2)nc1Nc1c[nH]nc1-c1nc2cc(CN3CCOCC3)ccc2[nH]1 [Compound 61, 2-(4-Fluorophenyl)-5-methoxy-N-(3-(5-(morpholinomethyl)-1H-benzo[d]imidazol-2-yl)-1H-pyrazol-4-yl)pyrimidin-4-amine] | 100 to 501 nM | ≤ 1000 nM
5 | COc1cnc(-c2c(F)ccc(Cl)c2F)nc1Nc1c[nH]nc1-c1nc2cc(CN3CCOCC3)ccc2[nH]1 [Compound 59, 2-(3-Chloro-2,6-difluorophenyl)-5-methoxy-N-(3-(5-(morpholinomethyl)-1H-benzo[d]imidazol-2-yl)-1H-pyrazol-4-yl)pyrimidin-4-amine] | ≤ 100 nM | ≤ 1000 nM
6 | C#Cc1ccc(F)c(-c2ncc(OC)c(Nc3c[nH]nc3-c3nc4cc(CN5CCOCC5)ccc4[nH]3)n2)c1 [Compound 58, 2-(5-Ethynyl-2-fluorophenyl)-5-methoxy-N-(3-(5-(morpholinomethyl)-1H-benzo[d]imidazol-2-yl)-1H-pyrazol-4-yl)pyrimidin-4-amine] | ≤ 100 nM | ≤ 1000 nM
7 | C#Cc1cccc(-c2ncc(OC)c(Nc3c[nH]nc3-c3nc4cc(CN5CCOCC5)ccc4[nH]3)n2)c1 [Compound 52, 2-(3-Ethynylphenyl)-5-methoxy-N-(3-(5-(morpholinomethyl)-1H-benzo[d]imidazol-2-yl)-1H-pyrazol-4-yl)pyrimidin-4-amine] | ≤ 100 nM | ≤ 1000 nM
8 | COc1cnc(-c2cccc(C#N)c2)nc1Nc1c[nH]nc1-c1nc2cc(CN3CCOCC3)ccc2[nH]1 [Compound 54, 3-(5-Methoxy-4-((3-(5-(morpholinomethyl)-1H-benzo[d]imidazol-2-yl)-1H-pyrazol-4-yl)amino)pyrimidin-2-yl)benzonitrile] | ≤ 100 nM | 10000 to 20000 nM
9 | Fc1c(Cl)cccc1-c1nccc(Nc2c[nH]nc2-c2nc3cc(CN4CCOCC4)ccc3[nH]2)n1 [Compound 45, 2-(3-Chloro-2-fluorophenyl)-N-(3-(5-(morpholinomethyl)-1H-benzo[d]imidazol-2-yl)-1H-pyrazol-4-yl)pyrimidin-4-amine] | ≤ 100 nM | 1000 to 5010 nM
10 | C#Cc1ccc(F)c(-c2ncc(OC)c(Nc3c[nH]nc3-c3nc4cc(CN5CCOCC5)ccc4[nH]3)n2)c1F [Compound 60, 2-(3-Ethynyl-2,6-difluorophenyl)-5-methoxy-N-(3-(5-(morpholinomethyl)-1H-benzo[d]imidazol-2-yl)-1H-pyrazol-4-yl)pyrimidin-4-amine] | ≤ 100 nM | ≤ 1000 nM
11 | C#Cc1cccc(-c2nccc(Nc3c[nH]nc3-c3nc4cc(CN5CCOCC5)ccc4[nH]3)n2)c1F [Compound 46, 2-(3-Ethynyl-2-fluorophenyl)-N-(3-(5-(morpholinomethyl)-1H-benzo[d]imidazol-2-yl)-1H-pyrazol-4-yl)pyrimidin-4-amine] | ≤ 100 nM | ≤ 1000 nM
12 | Fc1ccc(Cl)cc1-c1nccc(Nc2c[nH]nc2-c2nc3cc(CN4CCOCC4)ccc3[nH]2)n1 [Compound 47, 2-(5-Chloro-2-fluorophenyl)-N-(3-(5-(morpholinomethyl)-1H-benzo[d]imidazol-2-yl)-1H-pyrazol-4-yl)pyrimidin-4-amine] | ≤ 100 nM | 1000 to 5010 nM
13 | c1ccc(Oc2nccc(Nc3c[nH]nc3-c3nc4cc(CN5CCOCC5)ccc4[nH]3)n2)cc1 [Compound 17, N-(3-(5-(morpholinomethyl)-1H-benzo[d]imidazol-2-yl)-1H-pyrazol-4-yl)-2-phenoxypyrimidin-4-amine] | 100 to 501 nM | 5010 to 10000 nM
